In US20190136321A1, “USE OF TRANSLATIONAL PROFILING TO IDENTIFY TARGET MOLECULES FOR THERAPEUTIC TREATMENT” (The Regents of The University of California, priority 2013, published 2019):

Legend:
Assay type in all cases: cell-based, human
[1] = tested on: YB1, MTA1, vimentin, and CD44; assay: Western blot and qPCR of mTOR-sensitive invasion genes in PC3 cells; settings: starting at 6 hr of treatment
PC3 cells [2] = assay: Matrigel invasion assay; settings: 6-hr pre-treatment followed by 6 hr of cell invasion
Source text: BioCoat Matrigel Invasion Chambers (modified Boyden Chamber Assay; BD Biosciences) were used according to the manufacturer's instructions.

[3] = tested on: MDA-MB-361, SKOV3 and ACHN cells; assay: Western blot and qPCR of 4-gene invasion signature in metastatic cell lines; settings: MDA-MB-361, SKOV3, ACHN cells, 48-hour treatment, 200 nM
Experimental: Western blot analysis was performed as previously described (Hsieh et al., Cancer Cell 17:249-261 (2010)) with antibodies specific to phospho-AKT^S473 (Cell Signaling), AKT (Cell Signaling), phospho-p70S6K^T389 (Cell Signaling), phospho-rpS6^S240/244 (Cell Signaling), rpS6 (Cell Signaling), phospho-4EBP1^T37/46 (Cell Signaling), 4EBP1 (Cell Signaling), 4EBP2 (Cell Signaling), YB1 (Cell Signaling), CD44 (Cell Signaling), LEF1 (Cell Signaling), PTEN (Cell Signaling), eEF2 (Cell Signaling), GAPDH (Cell Signaling), vimentin (BD Biosciences), eIF4E (BD Biosciences), Flag (Sigma), β-actin (Sigma), MTA1 (Santa Cruz Biotechnology), Twist (Santa Cruz Biotechnology), rpL28 (Santa Cruz Biotechnology), HA (Covance) and rictor (Bethyl Laboratory).
RNA was isolated using the manufacturer's protocol for RNA extraction with TRIzol Reagent (Invitrogen) using the Pure Link RNA mini kit (Invitrogen). RNA was DNase-treated with Pure Link Dnase (Invitrogen). DNase-treated RNA was transcribed to cDNA with SuperScript III First-Strand Synthesis System for RT-PCR (Invitrogen), and 1 μl of cDNA was used to run a SYBR green detection qPCR assay (SYBR Green Supermix and MyiQ2, Biorad). Primers were used at 200 nM.

PC3 cells [4] = assay: Polysome analysis; settings: 100 nM, 3-hour
Experimental: Cells were re-suspended in PBS containing 100 μg ml^−1 cycloheximide (Sigma) and incubated on ice for 10 min. Cells were centrifuged at 300 g for 5 min at 4° C. and lysed in 10 mM Tris-HCl pH 8, 140 mM NaCl, 5 mM MgCl2, 640 U ml^−1 Rnasin, 0.05% NP-40, 250 μg ml^−1 cycloheximide, 20 mM DTT, and protease inhibitors. Samples were incubated for 20 min on ice, then centrifuged once for 5 min at 3,300 g and once for 5 min at 9,300 g, isolating the supernatant after each centrifugation. Lysates were loaded onto 10-50% sucrose gradients containing 0.1 mg ml^−1 heparin and 2 mM DTT and centrifuged at 37,000 r.p.m. for 2.5 hr at 4° C. The sample was subsequently fractionated on a gradient fractionation system (ISCO). RNA was extracted from all fractions and run on a TBE-agarose gel to visualize 18S and 28S rRNA.

SMILES: CC(C)n1nc(-c2ccc3oc(N)nc3c2)c2c(N)ncnc21 [ATP site inhibitor of mTOR]
- expression of YB1, MTA1, vimentin, and CD44 at the protein but not transcript level [1]: selective decrease
- invasive potential of PC3 prostate cancer cells (PC3 cells [2]): decreased
- 4-gene invasion signature response in metastatic cell lines [3]: responsive
- association of YB1 and rpS19 mRNAs in polysome fractions (PC3 cells [4]): differential association
- β-actin mRNA association in polysome fractions (PC3 cells [4]): no change
